Data published in patent US20100215653A1, “METHODS OF TREATING NEOPLASTIC, AUTOIMMUNE AND INFLAMMATORY DISEASES” (Seattle Genetics, Inc., priority 2006, published 2010).
“Also recorded” adds a separate entry of the source.

Experiments:
[1] = system: AML tumor cells; test: ADCP, phagocytosis by monocyte-derived macrophages (flow cytometry); format: cell-based, human; conditions: MDR-positive and MDR-negative AML cells (FIG. 27B)
Description: (§1) Target AML tumor cells (KG-1 HEL9217, and TF1α) were labeled with Na^51CrO4 and mixed with enriched CD16^+ effector (NK) cells, prepared using PBMCs from normal donors. The effector to target cell ratio was 10:1. […] Macrophages were labeled with CD11b−FITC or CD14-FITC antibody. Flow cytometric analyses of dual labeled (PKH67+CD11b+ or PKH67+CD14+) cells was used to determine specific uptake (phagocytosis). […] Media were collected 18 h later and analyzed by ELISA for IL-8 or MCP-1.

[2] = system: AML tumor cells (KG-1 HEL9217, and TF1α); test: ADCC, 51Cr release assay with NK effector cells; format: cell-based, human; conditions: MDR-positive and MDR-negative AML cells; effector to target ratio 10:1 (FIG. 27A)
Description: as §1
Viable NK cells were pre-treated for 2 to 3 h with lenalidomide or thalidomide (as described in FIG. 23) prior to addition to target cells.

[3] = system: HEL 92.1.7 cells; test: Complement-dependent cytotoxicity (CDC) activity; format: cell-based, human; conditions: MDR+, CD33-positive HEL 92.1.7 cells (FIG. 4)
Description: The purpose of this study was to determine whether the cytotoxic effects of an anti-CD33 antibody (HuM195) on AML cells could be enhanced by combination treatment with chemotherapeutic drugs. An MDR^+, CD33-positive AML cell line (HEL 92.1.7) was either untreated or preincubated with the indicated concentrations of thalidomide or 5-azacytidine for two hours prior to exposure to the anti-CD33 Ab. Cytotoxic activity was measured using a complement-dependent cytotoxicity (CDC) activity.

[4] = target: CD33 (Homo sapiens, UniProt P20138); test: CD33 tyrosine phosphorylation (CD33 immunoprecipitation, anti-phosphotyrosine Western blot); format: cell-based; set-up: endogenous in cells; host or cells: HL-60, U937; primary human CD14+ monocytes and PBMC-derived macrophages
Chain of CD33 (P20138 18-364): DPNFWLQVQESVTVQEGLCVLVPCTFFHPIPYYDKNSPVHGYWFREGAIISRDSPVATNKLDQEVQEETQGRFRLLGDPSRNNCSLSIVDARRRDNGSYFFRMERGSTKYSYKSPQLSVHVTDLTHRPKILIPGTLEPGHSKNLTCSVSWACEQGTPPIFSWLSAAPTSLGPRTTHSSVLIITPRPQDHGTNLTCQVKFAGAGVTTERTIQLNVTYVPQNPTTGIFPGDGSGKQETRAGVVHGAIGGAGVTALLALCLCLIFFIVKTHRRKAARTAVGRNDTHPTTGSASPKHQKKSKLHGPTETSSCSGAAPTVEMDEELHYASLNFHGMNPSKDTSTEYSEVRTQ
Description: CD33-positive cell lines were treated with anti-CD33 antibodies (lintuzumab and certain commercially available antibodies). Cell extracts were prepared and CD33 was immunoprecipitated using an anti-CD33 antibody (MY9 clone; Beckman Coulter, Calif.). Western blotting was performed with an anti-phosphotyrosine antibody (4G10; Upstate Biotechnologies, Inc., Lake Placid, N.Y.).
Deglycosylation was confirmed by CE-SDS. […] Cell lysates were prepared and CD33 immunoprecipitated using an anti-CD33 rabbit polyclonal antibody (Santa Cruz Biotechnology, Santa Cruz, Calif.) prior to SDS PAGE gel electrophoresis. Western blot analyses of these samples were performed using the 4G10 phosphotyrosine antibody (Upstate Biotechnology, Temucula, Calif.), anti-CD33 antibody (NovoCastra, Norwell, Mass.), and anti-SHP-1 antibody (Calbiochem, San Diego, Calif.). Control lysate for SHP-1 was prepared from a B cell lymphoma cell line.

[5] = system: HL-60 cells; test: HL-60 disseminated AML model in mice; format: in vivo
Description: Mice were implanted with an AML cell line, HL-60, as follows: 5 million HL-60 cells were injected intravenously. The mice were treated with lintuzumab (10 mg/kg, q4dx4, ip), cytarabine (1 mg/kg, 5 mg/kg or 25 mg/kg, q1dx10, ip; or 50 mg/kg or 100 mg/kg, q2dx5, ip) or lintuzumab with cytarabine (dosed as described previously). Treatment began on day one. Referring to FIG. 22, the control mice or mice treated with placebo (0.9% saline) were removed from the study by day 80, due to tumor progression.
To confirm the data of the in vitro study, mice were implanted with an AML cell line, HL-60, as follows: 5 million HL-60 cells were injected intravenously. […] Treatment began on day one. Referring to FIG. 24, the control mice were removed from the study by about day 60 due to tumor progression. Mice treated with lenalidomide were removed from study by about day 90 for similar reasons.
(§2) The MDR-negative HL60 cell line and the MDR-positive HEL9217 and TF1-α cell lines were used. […] Disease symptoms typically developed between about 35 and about 80 days, and included hind limb paralysis, scruffy coat, weight loss, palpable tumors, and/or tumor masses in bone, peritoneal cavity, or soft tissues. Human CD33+ tumor cells were detected in the blood, bone marrow, and lymph nodes of the majority of the mice by flow cytometry (FIG. 25). Solid tumors associated with bone or soft tissues were found in 20 to 60% of the mice.

[6] = system: TF1-α cells; test: TF1-α disseminated MDR-positive AML model in SCID mice; format: in vivo
Excerpt: as §2

[7] = system: primary human macrophages; test: Macrophage migration in response to chemoattractants (CytoSelect Cell Migration Assay); format: cell-based
Description: (§3) The migration of macrophages in response to challenge with plating media containing 10% human serum, 20% conditioned tumor cell media, or 50 ng/ml TGF-β, VEGF, TNF-α, or IFN-γ was evaluated using the CytoSelect Cell Migration Assay (Cell Biolabs, San Diego, Calif.). […] The study was stopped 18 hours later and migration was evaluated after dissociation of the cells from the membrane followed by detection with Cyquant GR dye.
as §3, with “serum or” for “serum,”, “media” for “media, or 50 ng/ml TGF-β, VEGF, TNF-α, or IFN-γ”, “studies were” for “study was”, “h” for “hours”

[8] = system: HEL9217 cells; test: HEL9217 disseminated MDR-positive AML model in SCID mice; format: in vivo
Excerpt: as §2

[9] = system: human CD14+ monocytes; test: Cytokine, chemokine and growth factor production by human CD14+ monocytes; format: cell-based
Description: Tissue culture media was harvested 18 h later for cytokine analyses by ELISA or Searchlight (Pierce Endogen, Rockville, Ill.).

[10] = system: advanced myeloid malignancies; test: Phase I single-arm dose escalation trial; format: in vivo, human
Description: Entry criteria included CD33 expression on >50% of the marrow blasts to ensure that adequate target antigen was present. […] Clinical response was assessed by bone marrow morphology and hematologic improvement. […] Among AML patients, 6 had antecedent hematologic disorder. Dosing cohorts included 1.5 (6), 2.5 (4), 4 (4), and 8 mg/kg (17).

## SGN-33: anti-CD33 antibody, a humanized version of mouse monoclonal antibody M195
[1]
  ADCP activity (phagocytosis): antibody-dependent cell phagocytosis of MDR-positive and MDR-negative AML cells; also recorded: mediate phagocytosis of AML tumor cells
[2]
  ADCC activity (cell lysis): mediated antibody-dependent cell cytotoxity; also recorded: mediate cell lysis of MDR− and MDR+AML tumor cell lines
[3]
  lysis of AML cells (CDC): increased lysis of AML cell lines in a dose-dependent manner
[4]; HL-60 AML cells (FIG. 16)
  phosphorylation of CD33: induced phosphorylation of CD33
[4]; HL-60 and U937 cells, soluble or cross-linked antibody (FIG. 2)
  CD33 tyrosine phosphorylation: stimulated CD33 tyrosine phosphorylation
[4]; HL-60 cells, soluble and cross-linked antibody (FIG. 1)
  CD33 tyrosine phosphorylation: stimulated CD33 tyrosine phosphorylation
[5]; HL60 model, SCID mice, q4dx4, p<0.005 (FIG. 26)
  survival: > 100 days
[5]; MDR-negative HL60 model, 3 to 30 mg/kg, p<0.0001
  increase of survival: > 100 days
[5]; SGN-33 30 mg/kg q4dx5 ip (FIG. 24)
  survival rate: ~85%
[5]; SGN-33 3 or 10 mg/kg q4dx5 ip (FIG. 24)
  survival rate: ~50%
[6]; MDR-positive TF1-α model, 4 doses at 10 or 30 mg/kg, p<0.025
  increase of survival: greater than 40 days
[6]; TF1-α model, SCID mice, q4dx4, p<0.005 (FIG. 26)
  survival: > 100 days
[7]; 10% human serum or 20% conditioned media from RPMI 8226 cells, p<0.05 (FIG. 21)
  macrophage migration: significantly reduced the migration
[7]; SGN-33 added to neuraminidase-treated macrophages, serum or tumor cell conditioned media (FIG. 14C)
  blocking of migration of neuraminidase-treated macrophages: greater blocking effect
[8]; HEL9217 model, SCID mice, q4dx4, p<0.005 (FIG. 26)
  survival: > 80 days
[8]; MDR-positive HEL9217 model, 4 doses at 10 or 30 mg/kg, p<0.025
  increase of survival: greater than 40 days
[9]; adherent CD14+ monocytes, 48 h (FIG. 10)
  basal and IFN-γ stimulated levels of IL-6, MCP-1, TNF-α, IL-8; IFN-γ stimulated level of RANTES: reduced the basal levels and IFN-γ stimulated levels
[9]; adherent CD14+ monocytes, RPMI-8228 conditioned media (FIG. 11)
  basal and conditioned media stimulated levels of IL-6, MCP-1, IL-8; conditioned media stimulated level of RANTES: reduced the basal levels and the RPMI-8228 conditioned media stimulated levels
[9]; adherent CD14+ monocytes, basal and RPMI-8228 conditioned media stimulated (FIG. 11)
  level of TNF-α: reduced the basal level, but not the RPMI-8228 conditioned media stimulated level
[9]; non-adherent CD14+ monocytes exposed to SGN-33 (FIG. 12)
  levels of IL-6, IL-8, TNF-α and MCP-1: small increases
[9]; non-adherent CD14+ monocytes, IFN-γ (FIG. 12)
  production of cytokines, chemokines and growth factors: not inhibited by SGN-33, except for the basal level of RANTES
[9]; primary human monocytes treated 1 hr before IFN-γ, 18 h, p<0.001 (FIG. 19)
  IFN-γ-stimulated production of IL-1β, IL-10, IL-12 and MIP-1α: significantly reduced
[9]; primary human monocytes, various doses 1 hr before IFN-γ, 18 h, p<0.05 (FIG. 20)
  levels of TNF-α: significantly reduced levels of TNF-α in a dose-dependent manner
[10]; 31 patients
  Grade 4 adverse events considered related to antibody: none
[10]; among 18 patients with AML
  patients achieving CR: 4
  patients achieving CR with incomplete platelet recovery: 1
[10]; repeat dosing
  accumulation: documented with repeat dosing
[10]; weekly iv 1.5 to 8 mg/kg for 5 weeks, 31 patients
  dose limiting toxicity: has not been observed
